Among the test systems are IGROV1 ovarian; M14 melanoma; SW-620 colon; MCF7 breast; NCI-H460 lung; K-562 leukemia; U251 CNS; SF-295 CNS; UO-31 renal; PC-3 prostate.
Assay in all cases: NCI-60 cell line screen, 48 h

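Cells were grown in 96-well plates and exposed to each compound for 48 hours at five concentrations; endpoints were interpolated linearly between bracketing concentrations, or set to the highest concentration if not reached. Here, GI50 denotes the concentration required for 50% inhibition of growth. TGI: concentration producing complete growth inhibition.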

This passage reports TGI and GI50 results from PubChem BioAssay (NCI).

In the case of `O=C(COc1cc(=O)oc2ccccc12)c1ccccc1`, the TGI in the experiment on IGROV1 ovarian is 76.7 µM; with M14 melanoma, more than 100 µM; with SW-620 colon, more than 100 µM; in the experiment with MCF7 breast, more than 100 µM; with NCI-H460 lung, more than 100 µM; in the experiment with K-562 leukemia, more than 100 µM. For the same compound, the TGI came out at 34.1 µM in the experiment with U251 CNS and 87.4 µM in the experiment with SF-295 CNS.

Take `Cc1nc2c(Cl)cc(Cl)cc2c2c1CCO2`: the TGI in the experiment on IGROV1 ovarian, in the experiment on M14 melanoma, in the experiment on SW-620 colon, in the experiment on MCF7 breast, in the experiment with NCI-H460 lung and in the experiment on UO-31 renal was more than 100 µM throughout. For the same compound, the TGI in the experiment on K-562 leukemia, with U251 CNS and with SF-295 CNS was more than 100 µM in each case.

Turning to `N=c1oc2ccc3ccccc3c2cc1-c1nc2ccccc2c(=O)[nH]1`, the TGI in the experiment with IGROV1 ovarian is 75.9 µM; with M14 melanoma it was more than 100 µM; in the experiment with SW-620 colon, more than 100 µM; in the experiment with MCF7 breast, 30 µM; in the experiment on NCI-H460 lung, more than 100 µM; with UO-31 renal, 32.8 µM. Further, the TGI in the experiment on K-562 leukemia, in the experiment with U251 CNS, with SF-295 CNS and with PC-3 prostate was more than 100 µM in each case.

Regarding `COc1cc(C[C@@]2(C)[C@@H]3CCC[C@H](CO)[C@@]3(C)CC[C@@H]2C)c(Cl)c(OC)c1`, the TGI in the experiment on IGROV1 ovarian worked out at 29.1 µM; in the experiment on M14 melanoma, 36.8 µM; in the experiment with SW-620 colon it was 84.6 µM; in the experiment on MCF7 breast, 29.8 µM; with NCI-H460 lung, 36.3 µM; with UO-31 renal, 31.5 µM. In addition, the TGI with K-562 leukemia came to 53 µM; in the experiment on U251 CNS, 29 µM; in the experiment on SF-295 CNS, 29.9 µM; in the experiment with PC-3 prostate, 27.2 µM.

In the case of `CCC1c2[nH]c3ccccc3c2C[C@H]2C(=O)NC(C)C(=O)N12` (stereo not given in full), the TGI with IGROV1 ovarian, in the experiment with M14 melanoma, in the experiment with SW-620 colon, with MCF7 breast, in the experiment with UO-31 renal and with K-562 leukemia was more than 100 µM in each case. Further, the TGI in the experiment with U251 CNS, in the experiment with SF-295 CNS and with PC-3 prostate was more than 100 µM each time.

Regarding `CC1=NNC(=O)C1C1(C(=O)O)CC(c2c[nH]c3ccccc23)=NC(=S)N1` (stereo not given), the TGI is more than 100 µM in the experiment on IGROV1 ovarian; 37.9 µM with M14 melanoma; more than 100 µM in the experiment on SW-620 colon; 50.1 µM in the experiment with NCI-H460 lung; more than 100 µM in the experiment on UO-31 renal; 73.9 µM in the experiment with K-562 leukemia. Besides, the TGI in the experiment on U251 CNS was 69.8 µM; with SF-295 CNS it was 91.1 µM; in the experiment with PC-3 prostate, more than 100 µM.

With `Nc1cc(OCC2CCCCC2)nc(N)n1`, the TGI with IGROV1 ovarian, in the experiment with M14 melanoma, in the experiment on SW-620 colon, in the experiment with NCI-H460 lung, with UO-31 renal and with K-562 leukemia was more than 100 µM each time. In addition, the TGI in the experiment with U251 CNS, in the experiment on SF-295 CNS and in the experiment on PC-3 prostate was more than 100 µM each time.

On to `CCC(C)C(Nc1c2ccccc2nc2c(C(=O)NCCN(C)C)cccc12)C(=O)O` (stereo not given), for which the TGI in the experiment on IGROV1 ovarian was more than 100 µM; with M14 melanoma, 44.1 µM; in the experiment with SW-620 colon it was more than 100 µM; with MCF7 breast, more than 100 µM; with UO-31 renal, 81.5 µM; in the experiment on K-562 leukemia, more than 100 µM. Moreover, the TGI is more than 100 µM in the experiment with U251 CNS, 40.9 µM in the experiment on SF-295 CNS and more than 100 µM with PC-3 prostate.

Take `COc1cc(/C=C/c2ccc(OC)c(OC)c2)oc(=O)c1`: the TGI with IGROV1 ovarian, in the experiment on SW-620 colon, with MCF7 breast, in the experiment on NCI-H460 lung, in the experiment with UO-31 renal and in the experiment on K-562 leukemia was more than 250 µM throughout. In addition, the TGI in the experiment with U251 CNS and in the experiment with SF-295 CNS was more than 250 µM in each case.

For the compound `COC(=O)c1ccc(OCCn2nnc(C(=O)NN)c2C(=O)NN)cc1`, the TGI in the experiment on M14 melanoma, in the experiment with MCF7 breast, in the experiment with NCI-H460 lung, in the experiment on UO-31 renal, with K-562 leukemia and with U251 CNS was more than 100 µM in each case. Further, the TGI in the experiment with SF-295 CNS and in the experiment with PC-3 prostate was more than 100 µM each time.

As for `CCC1(CC)C(=O)NC(=O)NC1=S`, the TGI with IGROV1 ovarian, with M14 melanoma, in the experiment with SW-620 colon, in the experiment with NCI-H460 lung, in the experiment with UO-31 renal and in the experiment with K-562 leukemia was more than 100 µM each time. Further, the TGI with U251 CNS and in the experiment with SF-295 CNS was more than 100 µM in each case.

Turning to `CC(C#N)(NO)C(C)(C#N)NO` (stereo not given), the TGI in the experiment on IGROV1 ovarian, with M14 melanoma, in the experiment with SW-620 colon, in the experiment on MCF7 breast, in the experiment on NCI-H460 lung and in the experiment on UO-31 renal was more than 100 µM each time. Also, the TGI in the experiment with K-562 leukemia, with U251 CNS and in the experiment with PC-3 prostate was more than 100 µM throughout.

For the compound `O=C1c2c(c3c4cc(F)ccc4oc3c3[nH]c4ccccc4c23)C(=O)N1O`, the GI50 in the experiment with IGROV1 ovarian was 0.46 µM; in the experiment on SW-620 colon, 1.24 µM; in the experiment on MCF7 breast, 0.596 µM; in the experiment on NCI-H460 lung, 0.565 µM; in the experiment on K-562 leukemia, 2.09 µM; in the experiment with U251 CNS, 0.904 µM. Further, the GI50 in the experiment with SF-295 CNS was 2.33 µM; in the experiment on PC-3 prostate, 1.35 µM. Further, the TGI with IGROV1 ovarian was 11.1 µM; with SW-620 colon it was more than 100 µM; in the experiment with MCF7 breast it was more than 100 µM; in the experiment with NCI-H460 lung, 10.6 µM; in the experiment with K-562 leukemia, more than 100 µM; with U251 CNS it was 13.4 µM. Further, the results for the TGI in the experiment on SF-295 CNS and in the experiment on PC-3 prostate were 9 µM and more than 100 µM, respectively.

Consider `CC1[C@@]2(O[C@@H]3C=C4C5CCC6Cc7nc8c(nc7C[C@@]6(C)C5C[C@H](O)[C@@]4(C)[C@]13O)CC1CCc3c(cc4c5c3C(O)C[C@H]5[C@@H](C)C3(O4)OC(C)(C)CC3O)[C@]1(C)C8)O[C@@](C)(CO)C[C@@H]2O` (stereo not given in full), for which the TGI in the experiment with IGROV1 ovarian was more than 3.72 µM; in the experiment with SW-620 colon, 1.1 µM; with MCF7 breast, more than 3.72 µM; in the experiment with NCI-H460 lung, more than 3.72 µM; with UO-31 renal, more than 3.72 µM; in the experiment on K-562 leukemia, more than 3.72 µM. The results for the TGI in the experiment on U251 CNS and in the experiment on SF-295 CNS were 0.586 µM and 0.182 µM, respectively.
